Measured values published in publication PMC11070402, “New antiproliferative 3-substituted oxindoles inhibiting EGFR/VEGFR-2 and tubulin polymerization” (Molecular Diversity, 2023).
Read-outs that look alike come from different tables or passages of the source.

How the values were obtained:
MCF-7 = experiment: NCI one-dose assay, MCF-7; format: cell-based, human; details: Homo sapiens, MCF7, MCF7 (Breast Cancer), 10 uM single dose; read-out: Growth inhibition %
Protocol: (§1) All novel scaffolds 6a–j were carefully selected by the National Cancer Institute (NCI), Bethesda, USA, to elucidate their cytotoxic activity versus 60 human cancer cell lines at 10 µM as a single-dose concentration after a 48 h incubation period.
(§2) National Cancer Institution selected all the synthesized 6a–j (NCI), Bethesda, USA, for in vitro one-dose antitumor assay. The methodology protocol for the NCI anticancer screening was reported in detail elsewhere (http://www.dtp.nci.nih.gov). The anticancer assay was performed in full NCI 60 cell lines extracted from nine tumor cell lines, including leukemia, melanoma, lung, colon, CNS, ovarian, renal, prostate, and breast cancer cell lines.

[1] = system: NCI/ADR-RES (ovarian cancer cell line); experiment: NCI one-dose assay, NCI/ADR-RES; format: cell-based; details: Homo sapiens; NCI/ADR-RES (Ovarian Cancer), 10 uM single dose; read-out: Growth inhibition %
Protocol: as §1, §2

[2] = system: SNB-75 cells (CNS cancer cell line); experiment: NCI one-dose assay, SNB-75; format: cell-based; details: Homo sapiens
Protocol: as §1, §2

UO-31 = experiment: NCI one-dose assay, UO-31; format: cell-based; details: Homo sapiens; UO-31 (Renal Cancer), 10 uM single dose; read-out: Growth inhibition %
Protocol: as §1, §2

K-562 = experiment: NCI one-dose assay, K-562; format: cell-based; details: Homo sapiens, K562; K-562 (Leukemia), 10 uM single dose; read-out: Growth inhibition %
Protocol: as §1, §2

[3] = system: 60 human cancer cell lines; experiment: NCI one-dose assay against sixty NCI cancer cell lines; format: cell-based
Protocol: as §1, §2

MOLT-4 = experiment: NCI one-dose assay, MOLT-4; format: cell-based; details: Homo sapiens; MOLT-4 (Leukemia), 10 uM single dose; read-out: Growth inhibition %
Protocol: as §1, §2

LOX IMVI = experiment: NCI one-dose assay, LOX IMVI; format: cell-based; details: Homo sapiens; LOX IMVI (Melanoma), 10 uM single dose; read-out: Growth inhibition %
Protocol: as §1, §2

T-47D = experiment: NCI one-dose assay, T-47D; format: cell-based; details: Homo sapiens, T47D; T-47D (Breast Cancer), 10 uM single dose; read-out: Growth inhibition %
Protocol: as §1, §2

SR = experiment: NCI one-dose assay, SR; format: cell-based; details: Homo sapiens; SR (Leukemia), 10 uM single dose; read-out: Growth inhibition %
Protocol: as §1, §2

[4] = system: HOP-92 (non-small cell lung cancer cell line); experiment: NCI one-dose assay, HOP-92; format: cell-based; details: Homo sapiens
Protocol: as §1, §2

NCI-H23 = experiment: NCI one-dose assay, NCI-H23; format: cell-based; details: Homo sapiens; NCI-H23 (Non-Small Cell Lung Cancer), 10 uM single dose; read-out: Growth inhibition %
Protocol: as §1, §2

[5] = SNB-75 (CNS Cancer), 10 uM single dose, read-out: Growth inhibition %
[6] = CAKI-1 (Renal Cancer), 10 uM single dose, read-out: Growth inhibition %
[7] = NCI-H226 (Non-Small Cell Lung Cancer), 10 uM single dose, read-out: Growth inhibition %
[8] = PC-3 (Prostate Cancer), 10 uM single dose, read-out: Growth inhibition %
[9] = UACC-62 (Melanoma), 10 uM single dose, read-out: Growth inhibition %
[10] = HCT-15 (Colon Cancer), 10 uM single dose, read-out: Growth inhibition %
[11] = HOP-62 (Non-Small Cell Lung Cancer), 10 uM single dose, read-out: Growth inhibition %
[12] = HS 578T (Breast Cancer), 10 uM single dose, read-out: Growth inhibition %
[13] = IGROV-1, IGROV1 (Ovarian Cancer), 10 uM single dose, read-out: Growth inhibition %
[14] = MDA-MB-231, read-out: Growth inhibition %
[15] = OVCAR-3 (Ovarian Cancer), 10 uM single dose, read-out: Growth inhibition %
[16] = SF-268 (CNS Cancer), 10 uM single dose, read-out: Growth inhibition %
[17] = ACHN (Renal Cancer), 10 uM single dose, read-out: Growth inhibition %
[18] = HCT-116 (Colon Cancer), 10 uM single dose, read-out: Growth inhibition %
[19] = M14 (Melanoma), 10 uM single dose, read-out: Growth inhibition %
[20] = NCI-H322M (Non-Small Cell Lung Cancer), 10 uM single dose, read-out: Growth inhibition %
[21] = NCI-H522 (Non-Small Cell Lung Cancer), 10 uM single dose, read-out: Growth inhibition %
[22] = SF-539 (CNS Cancer), 10 uM single dose, read-out: Growth inhibition %
[23] = BT-549 (Breast Cancer), 10 uM single dose, read-out: Growth inhibition %
[24] = CCRF-CEM (Leukemia), 10 uM single dose, read-out: Growth inhibition %
[25] = RPMI-8226 (Leukemia), 10 uM single dose, read-out: Growth inhibition %
[26] = U-251, U251 (CNS Cancer), 10 uM single dose, read-out: Growth inhibition %
[27] = OVCAR-8 (Ovarian Cancer), 10 uM single dose, read-out: Growth inhibition %

SMILES	inhibition at 10 µM (MCF-7)	inhibition at 10 µM [2, 5]	inhibition at 10 µM (UO-31)	inhibition at 10 µM (K-562)	melting point	inhibition at 10 µM [3, 6]	inhibition at 10 µM [3, 7]	inhibition at 10 µM [3, 8]	inhibition at 10 µM [3, 9]	inhibition at 10 µM (MOLT-4)	inhibition at 10 µM [3, 10]	inhibition at 10 µM [3, 11]	inhibition at 10 µM [3, 12]	inhibition at 10 µM [3, 13]	inhibition at 10 µM [3, 15]	inhibition at 10 µM [3, 16]	inhibition at 10 µM [3, 17]	inhibition at 10 µM [3, 18]	inhibition at 10 µM (LOX IMVI)	inhibition at 10 µM (T-47D)	also measured
O=C1Nc2ccccc2C1=Cc1ccc(OCC(=O)c2ccccc2)cc1 [Compound 6a, 3-{4-[2-Oxo-2-phenylethoxy]benzylidene}indolin-2-one]	11.3%	26.2%	30.5%	11.1%	219 to 221 °C	13.1%	11%	17.1%	12.9%	–	–	–	–	–	–	–	–	–	–	–	inhibition at 10 µM [1]: 1.84%
O=C1Nc2ccc(Cl)cc2C1=Cc1ccc(OCC(=O)c2ccccc2)cc1 [Compound 6b, 5-Chloro-3-{4-[2-oxo-2 phenylethoxy]benzylidene}indolin-2-one]	38%	31.1%	39.5%	23.5%	189 to 191 °C	31.9%	13.3%	24.9%	25.1%	13.4%	11.9%	14.6%	13.7%	20.3%	12.7%	11.3%	–	–	–	–	inhibition at 10 µM [3, 14]: 15.5%; inhibition at 10 µM ([3]; SK-OV-3 (Ovarian Cancer), 10 uM single dose, read-out: Growth inhibition %): 11.9%
O=C1Nc2cc(Cl)ccc2C1=Cc1ccc(OCC(=O)c2ccccc2)cc1 [Compound 6c, 6-Chloro-3-{4-[2-oxo-2-phenylethoxy]benzylidene}indolin-2-one]	38.2%	–	35%	18%	199 to 201 °C	26.4%	13.2%	28.5%	27.9%	–	23.5%	–	12.6%	20.1%	10.8%	11.4%	15.9%	12.2%	16.5%	16.3%	inhibition at 10 µM ([2]; SNB-75, 10 µM single dose, 48 h incubation, read-out: cell growth inhibition % (GI %)): 41.2%; inhibition at 10 µM [3, 19]: 11.1%; inhibition at 10 µM [3, 20]: 11.6%; inhibition at 10 µM [3, 21]: 11.7%; inhibition at 10 µM ([3]; RXF 393 (Renal Cancer), 10 uM single dose, read-out: Growth inhibition %): 16.4%; inhibition at 10 µM [3, 22]: 13.8%
O=C1Nc2ccc(F)cc2/C1=C\c1ccc(OCC(=O)c2ccccc2)cc1 [Compound 6d, (E/Z)-5-Fluoro-3-{4-[2-oxo-2-phenylethoxy]benzylidene}indolin-2-one]	23.1%	33.7%	32.3%	33.6%	223 to 226 °C	28.3%	10.3%	23%	30.6%	32.2%	11.7%	10.5%	14.8%	–	–	14.6%	–	14.3%	17.7%	14.3%	inhibition at 10 µM (SR): 25.2%; inhibition at 10 µM [3, 23]: 10.9%; inhibition at 10 µM [3, 24]: 15.6%; inhibition at 10 µM ([3]; EKVX (Non-Small Cell Lung Cancer), 10 uM single dose, read-out: Growth inhibition %): 18.9%; inhibition at 10 µM ([3]; HL-60(TB) (Leukemia), 10 uM single dose, read-out: Growth inhibition %): 16.9%; inhibition at 10 µM ([3]; KM12 (Colon Cancer), 10 uM single dose, read-out: Growth inhibition %): 15.9%; inhibition at 10 µM [3, 19]: 12.1%; inhibition at 10 µM [3, 20]: 11.2%; inhibition at 10 µM [3, 21]: 12.4%; inhibition at 10 µM [3, 25]: 22.1%; inhibition at 10 µM [3, 22]: 14.3%; inhibition at 10 µM ([3]; SNB-19 (CNS Cancer), 10 uM single dose, read-out: Growth inhibition %): 14.9%; inhibition at 10 µM [3, 26]: 16.8%
COc1ccc2c(c1)C(=Cc1ccc(OCC(=O)c3ccccc3)cc1)C(=O)N2 [Compound 6e, 5-Methoxy-3-{4-[2-oxo-2-phenylethoxy]benzylidene}indolin-2-one]	20.2%	–	29.6%	19.5%	196 to 198 °C	19.8%	11.6%	14.8%	24.7%	11.6%	10.3%	–	–	–	–	–	11.2%	12%	19.5%	–	inhibition at 10 µM [3, 20]: 12.4%
COc1ccc(C(=O)COc2ccc(C=C3C(=O)Nc4ccc(Cl)cc43)cc2)cc1 [Compound 6i, 5-Chloro-3-{4-[2-(4-methoxyphenyl)-2-oxoethoxy]benzylidene}indolin-2-one]	22.1%	37.6%	38.1%	25%	183 to 185 °C	22.7%	17.4%	29.6%	20.1%	21.8%	–	–	–	–	10.8%	–	–	10.4%	12.3%	23.9%	inhibition at 10 µM [1]: 13.1%; inhibition at 10 µM (SR): 21.2%; inhibition at 10 µM [3, 23]: 11.7%; inhibition at 10 µM [3, 24]: 12.5%; inhibition at 10 µM [3, 21]: 16.1%; inhibition at 10 µM [3, 27]: 10.6%; inhibition at 10 µM [3, 25]: 19.9%; inhibition at 10 µM ([3]; SK-MEL-2 (Melanoma), 10 uM single dose, read-out: Growth inhibition %): 22.2%; inhibition at 10 µM ([4]; HOP-92, 10 µM single dose, 48 h incubation, read-out: cell growth inhibition % (GI %)): 62.1%
COc1ccc(C(=O)COc2ccc(/C=C3/C(=O)Nc4cc(Cl)ccc43)cc2)cc1 [Compound 6j, (E/Z)-6-Chloro-3-{4-[2-(4-methoxyphenyl)-2-oxoethoxy]benzylidene}indolin-2-one]	34.4%	36.7%	35.9%	22.8%	165 to 167 °C	23.2%	13.2%	33.5%	23.8%	30.3%	–	16.7%	–	21.5%	18.1%	–	10.1%	12.2%	–	15.6%	inhibition at 10 µM (NCI-H23): 10.5%; inhibition at 10 µM (SR): 16.7%; inhibition at 10 µM [3, 19]: 10.3%; inhibition at 10 µM [3, 14]: 12.2%; inhibition at 10 µM ([3]; OVCAR-4 (Ovarian Cancer), 10 uM single dose, read-out: Growth inhibition %): 11%; inhibition at 10 µM [3, 27]: 13.4%; inhibition at 10 µM [3, 26]: 12.9%; inhibition at 10 µM ([4]; HOP-92 (Non-Small Cell Lung Cancer), 10 uM single dose, read-out: Growth inhibition %): 34.8%
